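Growth conditions: 96-well plates. Treatment: test compound, 48 hours, 5 concentrations. Analysis: linear interpolation between bracketing concentrations; unreached endpoints set to highest concentration. At the GI50, growth is halved. TGI: concentration producing complete growth inhibition.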
Columns and labels:
Assay in all cases: NCI tumour cell line growth inhibition, 48 h
HL-60(TB) leukemia = tested on: HL-60(TB) leukemia
SF-539 CNS = tested on: SF-539 CNS
MOLT-4 leukemia = tested on: MOLT-4 leukemia
HOP-92 NSCLC = tested on: HOP-92 NSCLC
NCI-H226 lung = tested on: NCI-H226 lung
SK-MEL-5 melanoma = tested on: SK-MEL-5 melanoma
HCT-116 colon = tested on: HCT-116 colon
MDA-MB-231 breast = tested on: MDA-MB-231 breast
ACHN renal = tested on: ACHN renal
M14 melanoma = tested on: M14 melanoma

Compound	GI50 (HL-60(TB) leukemia) [nM]	TGI (HL-60(TB) leukemia) [µM]	GI50 (SF-539 CNS) [nM]	TGI (SF-539 CNS) [µM]	GI50 (MOLT-4 leukemia) [nM]	TGI (MOLT-4 leukemia) [µM]	GI50 (HOP-92 NSCLC) [µM]	TGI (HOP-92 NSCLC) [µM]	GI50 (NCI-H226 lung) [nM]	TGI (NCI-H226 lung) [µM]	GI50 (SK-MEL-5 melanoma) [nM]	TGI (SK-MEL-5 melanoma) [µM]	GI50 (HCT-116 colon) [µM]	TGI (HCT-116 colon) [µM]	GI50 (MDA-MB-231 breast) [µM]	TGI (MDA-MB-231 breast) [µM]	GI50 (ACHN renal) [µM]	TGI (ACHN renal) [µM]	TGI (M14 melanoma) [µM]
CCOC(=O)c1ccccc1NC(c1ccccc1)c1ccc2cccnc2c1O (centres undefined)	1970	6.63	2520	10.2	2540	> 100	7.98	> 100	2690	13.9	2040	6.74	3.41	80.1	5.59	72.7	3.07	> 100	–
O=C(Cc1nc2ccccc2s1)C(=O)Nc1ccccc1C(F)(F)F	–	> 100	–	> 100	–	> 100	–	> 100	–	> 100	–	> 100	–	> 100	–	–	–	> 100	> 100
Cc1nn(C(=O)CC(=O)Nc2ccccc2Cl)c(C)c1N=Nc1ccccc1Cl	–	> 100	–	> 100	–	> 100	–	> 100	–	–	–	> 100	–	> 100	–	–	–	> 100	> 100
Nc1n[nH]c(=O)c2c1c(Br)cn2C1OC(CO)C(O)C1O (centres undefined)	–	1.03	–	25.8	–	9.3	–	7.59	–	59.3	–	45.4	–	> 40.6	–	–	–	> 100	30.1
COc1cc(C2C(C(=O)Nc3ccc(Cl)c(Cl)c3)=C(C)NC(C)=C2C(=O)Nc2ccc(Cl)c(Cl)c2)ccc1O	–	23.3	–	24.9	–	26.9	–	11.1	–	40.8	–	25.5	–	–	–	–	–	32.9	26.9
O=C1c2ccccc2CC1C1(O)C(=O)Nc2c(Cl)cc(Cl)cc21 (centres undefined)	–	96.4	–	–	–	> 100	–	> 100	–	> 100	–	> 100	–	–	–	–	–	> 100	> 100
CCc1cccc(C(C)C)c1C1C(=O)C(=O)N(c2nc3ccccc3s2)C(=O)C1=O	–	> 100	–	> 100	–	> 100	–	> 100	–	> 100	–	> 100	–	> 100	–	–	–	> 100	> 100
O=C1OC2C(O)COC2(OCc2c[nH]c3ccccc23)C1O (centres undefined) (tested in a mixture with another compound)	–	> 100	–	> 100	–	> 100	–	> 100	–	> 100	–	> 100	–	> 100	–	–	–	–	> 100
O=C1[C@@H]2C3C=CC([C@H]4C(=O)N(CO)C(=O)[C@@H]34)[C@@H]2C(=O)N1CO	–	49.3	–	> 100	–	> 100	–	> 100	–	> 100	–	> 100	–	> 57.4	–	–	–	> 83.5	> 75.2
O=S(O)CCCSSCCCCSSCCCS(=O)O	–	–	–	> 100	–	> 100	–	–	–	–	–	> 100	–	> 100	–	–	–	> 100	> 100
COc1ccc(/C=C(\NC(=O)c2ccccc2)c2nc3ccccc3[nH]2)cc1	–	–	–	> 100	–	83.1	–	> 100	–	> 100	–	29	–	> 100	–	–	–	> 100	> 100
